US9012200B2, “Composition of bacterial strains, bioremediation mixture and use of this composition for the removal of contaminants from the soil and the method for purifying the soil contaminants” (priority 2012, dated 2015)
In brackets after ≈: the same amount, converted by molar mass.

Tests used:
[1] = system: Achromobacter sp. strain 4P; assay type: cell-based
[2] = system: investigated strains of bacteria; assay type: cell-based
[3] = system: Brevundimonas sp. strain 5N; assay type: cell-based
[4] = system: model strain Escherichia coli; settings: according to Spain, 2003; cited from earlier work
[5] = system: Brevundimonas sp. strain 6N; assay type: cell-based
[6] = system: Pseudomonas sp. strain 4G; assay type: cell-based; settings: 24 h
[7] = system: Arthrobacter sp. strain 1N; assay type: cell-based
[8] = system: Stenotrophomonas sp. strain 3N; assay type: cell-based
[9] = system: Brevundimonas sp. strain 2N; assay type: cell-based
[10] = system: Stenotrophomonas sp. strain 5L; assay type: cell-based
[11] = system: Pseudomonas sp. strain 3G; assay type: cell-based; settings: 24 h
[12] = system: Stenotrophomonas sp. strain 6L; assay type: cell-based
[13] = system: Stenotrophomonas sp. strain 2L; assay type: cell-based
[14] = system: Stenotrophomonas sp. strain 3N; test: Disc diffusion antibiotic susceptibility; assay type: cell-based; settings: 24 h
Procedure: (§1) A disc diffusion method was performed to determine the susceptibility of bacteria to the selected antibiotics. We used discs soaked with the antibiotic of a well-defined concentration (BioMerioux) (Table 2) and the minimal inhibitory concentration test was carried out, using E-tests (Oxoid) (Table 3).
(§2) A McFarland's 0.5 inoculum was prepared from each strain's culture, using a densitometer (EMO). Then, using sterile cotton swabs, the suspension of bacterial cells was spread on dishes with ready-to-use MHA medium (Oxoid), and after 15 minutes, discs soaked with antibiotics at defined concentrations were placed on them.
(§3) The dishes were incubated at 25-30° C., and the results were read after 24 and 48 hours. The measure of susceptibility of a tested strain to a given antibiotic was the size of the inhibition zone which formed around the disc soaked with the antibiotic. The results read (sizes of zones measured in mm) were compared with the data contained in the European Committee on Antimicrobial Susceptibility Testing (EUCAST) standards from 2010 (Table 4).
(§4) The measure of susceptibility of the tested bacterial strain to a given antibiotic was the size of the inhibition zone which formed around the disc (Table 5).

[15] = system: Stenotrophomonas sp. strain 2L; test: Disc diffusion antibiotic susceptibility; assay type: cell-based
Procedure: as §1, §2, §3, §4

[16] = system: Pseudomonas sp. strain 4G; test: Disc diffusion antibiotic susceptibility; assay type: cell-based; settings: 24 h
Procedure: as §1, §2, §3, §4

[17] = system: Brevundimonas sp. strain 5N; test: Disc diffusion antibiotic susceptibility; assay type: cell-based; settings: 24 h
Procedure: as §1, §2, §3, §4

[18] = system: Brevundimonas sp. strain 6N; test: Disc diffusion antibiotic susceptibility; assay type: cell-based; settings: 24 h
Procedure: as §1, §2, §3, §4

[19] = system: Stenotrophomonas sp. strain 5L; test: Disc diffusion antibiotic susceptibility; assay type: cell-based; settings: 24 h
Procedure: as §1, §2, §3, §4

[20] = system: Achromobacter sp. strain 4P; test: Disc diffusion antibiotic susceptibility; assay type: cell-based; settings: 24 h
Procedure: as §1, §2, §3, §4

[21] = system: Arthrobacter sp. strain 1N; test: Disc diffusion antibiotic susceptibility; assay type: cell-based
Procedure: as §1, §2, §3, §4

[22] = system: Pseudomonas sp. strain 3G; test: Disc diffusion antibiotic susceptibility; assay type: cell-based; settings: 24 h
Procedure: as §1, §2, §3, §4

[23] = system: Brevundimonas sp. strain 2N; test: Disc diffusion antibiotic susceptibility; assay type: cell-based; settings: 24 h
Procedure: as §1, §2, §3, §4

[24] = system: Stenotrophomonas sp. strain 6L; test: Disc diffusion antibiotic susceptibility; assay type: cell-based; settings: 24 h
Procedure: as §1, §2, §3, §4

[25] = system: Stenotrophomonas sp. strain 3N; test: Antibiotic MIC by E-test; assay type: cell-based; settings: Stenotrophomonas, 24 h, read-out: MIC threshold values for a given antibiotic
Procedure: as §1
(§5) In the next stage of the research, MIC values of a given antibiotic for the investigated strains were determined, meaning the lowest concentration of the drug, expressed in mg/L, determined in vitro, which inhibits the growth of bacteria at a defined inoculum density, within a given time (Hryniewicz et at, 2001). These studies allow for the closer determination of the degree of susceptibility of bacteria to the applied antibiotics.
(§6) A bacterial suspension was evenly distributed on dishes with ready-to-use MHA medium (Oxoid), and then plastic testing strips (E-tests) soaked with an antibiotic with a concentration gradient were placed thereon. The dishes were incubated at 25-30° C. for 24 h, and the test results were read after this time.
(§7) The intersection of elliptical zone of inhibition, which appeared around the test strip, with the value indicator on the gradient scale of the strip, determined the lowest concentration of antibiotic, inhibiting growth of the microorganism (MIC). Similarly as in the disc diffusion method, the obtained results were compared with the guidelines contained in the relevant standards.

[26] = system: Stenotrophomonas sp. strain 2L; test: Antibiotic MIC by E-test; assay type: cell-based; settings: Stenotrophomonas, 24 h, read-out: MIC threshold values for a given antibiotic
Procedure: as §1, §5, §6, §7

[27] = system: Pseudomonas sp. strain 4G; test: Antibiotic MIC by E-test; assay type: cell-based; settings: Pseudomonas, 24 h, read-out: MIC threshold values for a given antibiotic
Procedure: as §1, §5, §6, §7

[28] = system: Brevundimonas sp. strain 5N; test: Antibiotic MIC by E-test; assay type: cell-based; settings: Brevundimonas, 24 h, read-out: MIC threshold values for a given antibiotic
Procedure: as §1, §5, §6, §7

[29] = system: Brevundimonas sp. strain 6N; test: Antibiotic MIC by E-test; assay type: cell-based; settings: Brevundimonas, 24 h, read-out: MIC threshold values for a given antibiotic
Procedure: as §1, §5, §6, §7

[30] = system: Stenotrophomonas sp. strain 5L; test: Antibiotic MIC by E-test; assay type: cell-based; settings: Stenotrophomonas, 24 h, read-out: MIC threshold values for a given antibiotic
Procedure: as §1, §5, §6, §7

[31] = system: Achromobacter sp. strain 4P; test: Antibiotic MIC by E-test; assay type: cell-based; settings: Achromobacter; strain 4P, E-test, 24 h; read-out: MIC threshold values for a given antibiotic
Procedure: as §1, §5, §6, §7

[32] = system: Arthrobacter sp. strain 1N; test: Antibiotic MIC by E-test; assay type: cell-based; settings: Arthrobacter; strain 1N, E-test, 24 h; read-out: MIC threshold values for a given antibiotic
Procedure: as §1, §5, §6, §7

[33] = system: Pseudomonas sp. strain 3G; test: Antibiotic MIC by E-test; assay type: cell-based; settings: Pseudomonas, 24 h, read-out: MIC threshold values for a given antibiotic
Procedure: as §1, §5, §6, §7

[34] = system: Brevundimonas sp. strain 2N; test: Antibiotic MIC by E-test; assay type: cell-based; settings: Brevundimonas, 24 h, read-out: MIC threshold values for a given antibiotic
Procedure: as §1, §5, §6, §7

[35] = system: Stenotrophomonas sp. strain 6L; test: Antibiotic MIC by E-test; assay type: cell-based; settings: Stenotrophomonas, 24 h, read-out: MIC threshold values for a given antibiotic
Procedure: as §1, §5, §6, §7

SMILES | MIC threshold values of heavy metals [1] | Susceptibility of the investigated strains to the heavy metal [2] | MIC threshold values of heavy metals [3] | MIC [4] [mM/L] | MIC threshold values of heavy metals [5] | MIC threshold values of heavy metals [6] [mM/L] | MIC threshold values of heavy metals [7] [mM/L] | MIC threshold values of heavy metals [8] | MIC threshold values of heavy metals [9] | MIC threshold values of heavy metals [10] | MIC threshold values of heavy metals [11] [mM/L] | MIC threshold values of heavy metals [12] | MIC threshold values of heavy metals [13] | Size of the growth inhibition zone [14] [mm] | Size of the growth inhibition zone ([15]; 24 h) [mm] | Size of the growth inhibition zone [16] [mm] | Size of the growth inhibition zone [17] [mm] | Size of the growth inhibition zone [18] [mm] | Size of the growth inhibition zone [19] [mm] | Size of the growth inhibition zone [20] [mm] | also measured
O=S(=O)([O-])[O-].[Cd+2] [Cd(II), Cadmium sulphate] | 0.1(0.2) mM/L | susceptible | 0.1(0.2) mM/L | 0.5 | 0.1 mM/L | 0.1 | 0.1 | 0.1 mM/L | 0.1 mM/L | 0.1 mM/L | 0.1 | 0.1 mM/L | 0.1 mM/L | – | – | – | – | – | – | – | Growth of the strains in the presence of the metal salt [2]: None of the investigated strains was able to grow
O=S(=O)([O-])[O-].[Zn+2] [Zn(II), Zinc sulphate] | 3(5) mM/L | resistant | 2(4) mM/L | 1 | 2(3) mM/L | 4 | 4 | 3(4) mM/L | 3(4) mM/L | 4(5) mM/L | 4 | 4(5) mM/L | 3(4) mM/L | – | – | – | – | – | – | – | –
[H]/N=C(/N)N[C@H]1[C@H](O)[C@@H](O)[C@H](O[C@@H]2O[C@@H](C)[C@](O)(C=O)[C@H]2O[C@@H]2O[C@@H](CO)[C@H](O)[C@@H](O)[C@@H]2NC)[C@@H](N/C(N)=N\[H])[C@@H]1O [S, streptomycin] | – | – | – | – | – | – | – | – | – | – | – | – | – | 0 | 16 | 0 | 0 | 0 | 8 | 0 | Size of the growth inhibition zone ([15]; 48 h): 10 mm; Size of the growth inhibition zone ([21]; 24 h): 12 mm; Size of the growth inhibition zone ([21]; 48 h): 10 mm; Size of the growth inhibition zone [22]: 10 mm; Size of the growth inhibition zone [23]: 0 mm; Size of the growth inhibition zone [24]: 0 mm; MIC [25]: 384 µg/mL (≈ 660 µM); MIC [26]: 64 µg/mL (≈ 110 µM); MIC [27]: ≥ 1020 µg/mL; MIC [28]: 64 µg/mL (≈ 110 µM); MIC [29]: ≥ 1020 µg/mL; MIC [30]: 64 µg/mL (≈ 110 µM); MIC [31]: 96 µg/mL (≈ 165 µM); MIC [32]: 48 µg/mL (≈ 82.5 µM); MIC [33]: ≥ 1020 µg/mL; MIC [34]: 384 µg/mL (≈ 660 µM); MIC [35]: ≥ 1020 µg/mL
CC1(C)S[C@@H]2[C@H](NC(=O)Cc3ccccc3)C(=O)N2[C@H]1C(=O)O [P, penicillin G] | – | – | – | – | – | – | – | – | – | – | – | – | – | 0 | 0 | 0 | 0 | 0 | 0 | 0 | Size of the growth inhibition zone ([21]; 24 h): 0 mm; Size of the growth inhibition zone [22]: 0 mm; Size of the growth inhibition zone [23]: 0 mm; Size of the growth inhibition zone [24]: 0 mm; MIC [25]: ≥ 32 µg/mL; MIC [26]: ≥ 32 µg/mL; MIC [27]: ≥ 32 µg/mL; MIC [28]: ≥ 32 µg/mL; MIC [29]: ≥ 32 µg/mL; MIC [30]: ≥ 32 µg/mL; MIC [31]: ≥ 32 µg/mL; MIC [32]: ≥ 32 µg/mL; MIC [33]: ≥ 32 µg/mL; MIC [34]: ≥ 32 µg/mL; MIC [35]: ≥ 32 µg/mL
